{
  "source": "patent US10786547B2",
  "about": "“Compositions, articles of manufacture and methods for treating cancer” (Biokine Therapeutics Ltd., priority 2015, dated 2020)",
  "key": {"CXCR4 receptor": {"biological_target": "CXCR4 receptor (Homo sapiens, UniProt P61073)", "sequence (P61073 whole entry)": "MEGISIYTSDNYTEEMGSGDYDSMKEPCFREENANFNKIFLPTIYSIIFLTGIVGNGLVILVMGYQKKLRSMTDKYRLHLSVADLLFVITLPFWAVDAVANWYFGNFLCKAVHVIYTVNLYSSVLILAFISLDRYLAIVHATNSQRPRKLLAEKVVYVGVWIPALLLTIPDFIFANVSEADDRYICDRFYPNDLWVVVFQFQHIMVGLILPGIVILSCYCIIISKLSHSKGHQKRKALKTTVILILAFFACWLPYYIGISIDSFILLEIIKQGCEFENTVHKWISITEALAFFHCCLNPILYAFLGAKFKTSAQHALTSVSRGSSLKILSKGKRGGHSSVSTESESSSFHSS", "conditions": "cited from earlier work"}, "[1]": {"system": "long term repopulating stem cells", "conditions": "mice, single BL-8040 injection; cited from earlier work"}, "[2]": {"system": "CD34+ hematopoietic stem/progenitor cells (HSPC)", "conditions": "multiple myeloma patients, combined treatment of BL-8040 and G-CSF, single aphaeresis procedure; cited from earlier work"}, "[3]": {"conditions": "in vivo"}, "[4]": {"system": "immune cells including immature stem/progenitor cells, T cells and NK cells", "conditions": "\"It has been shown\"; cited from earlier work"}, "[5]": {"system": "immune cells including immature stem/progenitor cells, T cells and NK cells", "experiment": "in-vivo administration, mobilization of immune and stem/progenitor cells", "conditions": "to the peripheral blood"}, "[6]": {"system": "myeloid leukemia, hematopoietic tumors and non-small cell lung cancer", "conditions": "cited from earlier work"}},
  "note": "Entries after “also recorded” stand apart in the source; their conditions may differ. [ ]: non-standard residue; d: D form. The star is where a group is joined. Benzoyl(4-F) = O=C(c1ccc(F)cc1)*; Cit = NC(=O)NCCC[C@H](N)C(=O)O",
  "data": [
    {"substance": "4F-benzoyl-Arg-Arg-Nal-Cys-Tyr-Cit-Lys-DLys-Pro-Tyr-Arg-Cit-Cys-Arg-NH2 ({Benzoyl(4-F)}-RR[Nal]CY[Cit]K[dK]PYR[Cit]CR-NH2; cysteine pairing not given here) [BL-8040]", "values": [
      {"measurement": "receptor occupancy", "setting": "CXCR4 receptor; CXCR4 receptor", "result": "long receptor occupancy"},
      {"measurement": "affinity of binding to the CXCR4 receptor", "setting": "CXCR4 receptor", "result": "high affinity"},
      {"measurement": "mobilization of long term repopulating stem cells", "setting": "[1]", "result": "mobilized long term repopulating stem cells sufficient for transplantation"},
      {"measurement": "collection of CD34+ hematopoietic stem/progenitor cells (HSPC)", "setting": "[2]", "result": "enabled the collection of high number of CD34+ hematopoietic stem/progenitor cells (HSPC) in a single aphaeresis procedure"},
      {"measurement": "safety and tolerability", "setting": "[3]", "result": "safe and well tolerated"},
      {"measurement": "mobilization of CD34+ hematopoietic stem/progenitor cells (HSPC)", "setting": "[4]", "result": "induces mobilization of CD34+ hematopoietic stem/progenitor cells (HSPC) that can be further used for transplantation"},
      {"measurement": "mobilization of immune cells", "setting": "[5]", "result": "induces rapid mobilization of a variety of immune cells including immature stem/progenitor cells as well as fully differentiated T cells and NK cells; also recorded: induce rapid mobilization of hematopoietic stem/progenitor cells and mesenchymal stem cells as well as T cells, B cells, NK cells, NKT cells and ImDC to the peripheral blood"},
      {"measurement": "toxicity against tumors", "setting": "[6]", "result": "toxic against several tumors such as myeloid leukemia, hematopoietic tumors and non-small cell lung cancer"}
    ]}
  ]
}
